# The source made the active and inactive calls. How the calls were made is not given here.
# Target: glucose-6-phosphate dehydrogenase-6-phosphogluconolactonase (Plasmodium falciparum 3D7)
# Assay: inhibition of P. falciparum G6PD activity – biochemical, end-point NADPH detection, orthogonal assay, SAR follow-up (AID 588588)
# Details: recombinant PfG6PD-6PGL, direct NADPH end-point detection
row,Structure (SMILES),IC50
1,COc1ccc(/C=C2/Sc3ccc(C(=O)NCCN4CCCC4)cc3NC2=O)cc1,> 80 µM (inactive)
2,CCCN(CCC)CCNC(=O)c1ccc2c(c1)NC(=O)/C(=C/c1ccccc1)S2,> 80 µM (inactive)
